Key:
[1] = tested on: BJ; assay: hTERT-SEAP (Human telomerase reverse transcriptase-SEAP) activity in immortalized hTERT-BJI at 2.8 uM concentration and level of cell viability determined in MTT assay; type: functional
[2] = tested on: BJ; assay: hTERT-SEAP (Human telomerase reverse transcriptase-SEAP) activity in immortalized hTERT-BJI at 28.0 uM concentration and level of cell viability determined in MTT assay; type: functional
[3] = tested on: BJ; assay: hTERT-SEAP (Human telomerase reverse transcriptase-SEAP) activity in immortalized hTERT-BJI at 280.0 uM concentration and level of cell viability determined in MTT assay; type: functional
[4] = tested on: BJ; assay: Compound was tested for human telomerase reverse transcriptase-SEAP (hTERT-SEAP) activity in immortalized hTERT-BJI at 28.0 uM concentration; type: functional
[5] = tested on: BJ; assay: Compound was tested for human telomerase reverse transcriptase-SEAP (hTERT-SEAP) activity in immortalized hTERT-BJI at 280.0 uM concentration; type: functional
[6] = tested on: BJ; assay: Compound was tested for human telomerase reverse transcriptase-SEAP (hTERT-SEAP) activity in immortalized hTERT-BJI at 2.8 uM concentration; type: functional
[7] = tested on: NCI-H1299; assay: hTERT-SEAP (Human telomerase reverse transcriptase-SEAP) activity in non-small cell lung cancer H1299 cell at 2.8 uM concentration and level of cell viability determined in MTT assay; type: functional
[8] = tested on: NCI-H1299; assay: Compound was tested for human telomerase reverse transcriptase-SEAP (hTERT-SEAP) activity in non-small cell lung cancer H1299 cell at 28.0 uM concentration; type: functional
[9] = tested on: NCI-H1299; assay: Compound was tested for human telomerase reverse transcriptase-SEAP (hTERT-SEAP) activity in non-small cell lung cancer H1299 cell at 280.0 uM concentration; type: functional
[10] = tested on: NCI-H1299; assay: hTERT-SEAP (Human telomerase reverse transcriptase-SEAP) activity in non-small cell lung cancer H1299 cell at 28 uM concentration and level of cell viability determined in MTT assay; type: functional
[11] = tested on: NCI-H1299; assay: hTERT-SEAP (Human telomerase reverse transcriptase-SEAP) activity in non-small cell lung cancer H1299 cell at 280.0 uM concentration and level of cell viability determined in MTT assay; type: functional
[12] = tested on: NCI-H1299; assay: Compound was tested for human telomerase reverse transcriptase-SEAP (hTERT-SEAP) activity in non-small cell lung cancer H1299 cell at 2.8 uM concentration; type: functional
[13] = tested on: BJ; assay: hTERT-SEAP (Human telomerase reverse transcriptase-SEAP) activity in immortalized hTERT-BJI at 2.2 uM concentration and level of cell viability determined in MTT assay; type: functional
[14] = tested on: BJ; assay: Compound was tested for cytomegalovirus or (pPCMV-SEAP) activity in immortalized hTERT-BJ1 at 2.2 uM concentration; type: functional, Homo sapiens
[15] = tested on: BJ; assay: Compound was tested for cytomegalovirus or (pPCMV-SEAP) activity in immortalized hTERT-BJ1 at 22 uM concentration; type: functional, Homo sapiens
[16] = tested on: BJ; assay: Compound was tested for cytomegalovirus or (pPCMV-SEAP) activity in immortalized hTERT-BJ1 at 220 uM concentration; type: functional, Homo sapiens
[17] = tested on: BJ; assay: Compound was tested for human telomerase reverse transcriptase-SEAP (hTERT-SEAP) activity in immortalized hTERT-BJI at 2.2 uM concentration; type: functional
[18] = tested on: BJ; assay: Compound was tested for human telomerase reverse transcriptase-SEAP (hTERT-SEAP) activity in immortalized hTERT-BJI at 22 uM concentration; type: functional
[19] = tested on: BJ; assay: Compound was tested for human telomerase reverse transcriptase-SEAP (hTERT-SEAP) activity in immortalized hTERT-BJI at 220.0 uM concentration; type: functional
[20] = tested on: BJ; assay: hTERT-SEAP (Human telomerase reverse transcriptase-SEAP) activity in immortalized hTERT-BJI at 22 uM concentration and level of cell viability determined in MTT assay; type: functional
[21] = tested on: BJ; assay: hTERT-SEAP (Human telomerase reverse transcriptase-SEAP) activity in immortalized hTERT-BJI at 220.0 uM concentration and level of cell viability determined in MTT assay; type: functional
[22] = tested on: BJ; assay: pPCMV-SEAP (cytomegalovirus-SEAP) activity in immortalized hTERT-BJ1 at 220 uM concentration and level of cell viability determined in MTT assay; type: functional, Homo sapiens
[23] = tested on: BJ; assay: pPCMV-SEAP (cytomegalovirus-SEAP) activity in immortalized hTERT-BJ1 at 2.2 uM concentration and level of cell viability determined in MTT assay; type: functional, Homo sapiens
[24] = tested on: BJ; assay: pPCMV-SEAP (cytomegalovirus-SEAP) activity in immortalized hTERT-BJ1 at 22 uM concentration and level of cell viability determined in MTT assay; type: functional, Homo sapiens
[25] = tested on: NCI-H1299; assay: hTERT-SEAP (Human telomerase reverse transcriptase-SEAP) activity in non-small cell lung cancer H1299 cell at 22 uM concentration and level of cell viability determined in MTT assay; type: functional
[26] = tested on: NCI-H1299; assay: hTERT-SEAP (Human telomerase reverse transcriptase-SEAP) activity in non-small cell lung cancer H1299 cell at 220.0 uM concentration and level of cell viability determined in MTT assay; type: functional
[27] = tested on: NCI-H1299; assay: Compound was tested for human telomerase reverse transcriptase-SEAP (hTERT-SEAP) activity in non-small cell lung cancer H1299 cell at 22 uM concentration; type: functional
[28] = tested on: NCI-H1299; assay: Compound was tested for human telomerase reverse transcriptase-SEAP (hTERT-SEAP) activity in non-small cell lung cancer H1299 cell at 220.0 uM concentration; type: functional
[29] = tested on: NCI-H1299; assay: Compound was tested for human telomerase reverse transcriptase-SEAP (hTERT-SEAP) activity in non-small cell lung cancer H1299 cell at 2.2 uM concentration; type: functional
[30] = tested on: NCI-H1299; assay: hTERT-SEAP (Human telomerase reverse transcriptase-SEAP) activity in non-small cell lung cancer H1299 cell at 2.2 uM concentration and level of cell viability determined in MTT assay; type: functional
[31] = tested on: BJ; assay: hTERT-SEAP (Human telomerase reverse transcriptase-SEAP) activity in immortalized hTERT-BJI at 19 uM concentration and level of cell viability determined in MTT assay; type: functional
[32] = tested on: BJ; assay: hTERT-SEAP (Human telomerase reverse transcriptase-SEAP) activity in immortalized hTERT-BJI at 190.0 uM concentration and level of cell viability determined in MTT assay; type: functional
[33] = tested on: BJ; assay: Compound was tested for human telomerase reverse transcriptase-SEAP (hTERT-SEAP) activity in immortalized hTERT-BJI at 19 uM concentration; type: functional
[34] = tested on: BJ; assay: Compound was tested for human telomerase reverse transcriptase-SEAP (hTERT-SEAP) activity in immortalized hTERT-BJI at 190.0 uM concentration; type: functional
[35] = tested on: NCI-H1299; assay: Compound was tested for human telomerase reverse transcriptase-SEAP (hTERT-SEAP) activity in non-small cell lung cancer H1299 cell at 1.9 uM concentration; type: functional
[36] = tested on: NCI-H1299; assay: Compound was tested for human telomerase reverse transcriptase-SEAP (hTERT-SEAP) activity in non-small cell lung cancer H1299 cell at 19 uM concentration; type: functional
[37] = tested on: NCI-H1299; assay: hTERT-SEAP (Human telomerase reverse transcriptase-SEAP) activity in non-small cell lung cancer H1299 cell at 1.9 uM concentration and level of cell viability determined in MTT assay; type: functional
[38] = tested on: NCI-H1299; assay: hTERT-SEAP (Human telomerase reverse transcriptase-SEAP) activity in non-small cell lung cancer H1299 cell at 19 uM concentration and level of cell viability determined in MTT assay; type: functional
[39] = tested on: NCI-H1299; assay: Compound was tested for human telomerase reverse transcriptase-SEAP (hTERT-SEAP) activity in non-small cell lung cancer H1299 cell at 190.0 uM concentration; type: functional
[40] = tested on: NCI-H1299; assay: hTERT-SEAP (Human telomerase reverse transcriptase-SEAP) activity in non-small cell lung cancer H1299 cell at 190.0 uM concentration and level of cell viability determined in MTT assay; type: functional
[41] = tested on: BJ; assay: hTERT-SEAP (Human telomerase reverse transcriptase-SEAP) activity in immortalized hTERT-BJI at 230.0 uM concentration and level of cell viability determined in MTT assay; type: functional
[42] = tested on: BJ; assay: Compound was tested for human telomerase reverse transcriptase-SEAP (hTERT-SEAP) activity in immortalized hTERT-BJI at 23 uM concentration; type: functional
[43] = tested on: BJ; assay: Compound was tested for human telomerase reverse transcriptase-SEAP (hTERT-SEAP) activity in immortalized hTERT-BJI at 230.0 uM concentration; type: functional
[44] = tested on: BJ; assay: hTERT-SEAP (Human telomerase reverse transcriptase-SEAP) activity in immortalized hTERT-BJI at 23 uM concentration and level of cell viability determined in MTT assay; type: functional
[45] = tested on: NCI-H1299; assay: hTERT-SEAP (Human telomerase reverse transcriptase-SEAP) activity in non-small cell lung cancer H1299 cell at 23 uM concentration and level of cell viability determined in MTT assay; type: functional
[46] = tested on: NCI-H1299; assay: hTERT-SEAP (Human telomerase reverse transcriptase-SEAP) activity in non-small cell lung cancer H1299 cell at 230.0 uM concentration and level of cell viability determined in MTT assay; type: functional
[47] = tested on: NCI-H1299; assay: Compound was tested for human telomerase reverse transcriptase-SEAP (hTERT-SEAP) activity in non-small cell lung cancer H1299 cell at 23 uM concentration; type: functional
[48] = tested on: NCI-H1299; assay: Compound was tested for human telomerase reverse transcriptase-SEAP (hTERT-SEAP) activity in non-small cell lung cancer H1299 cell at 230.0 uM concentration; type: functional
[49] = tested on: NCI-H1299; assay: hTERT-SEAP (Human telomerase reverse transcriptase-SEAP) activity in non-small cell lung cancer H1299 cell at 2.3 uM concentration and level of cell viability determined in MTT assay; type: functional
[50] = tested on: NCI-H1299; assay: Compound was tested for human telomerase reverse transcriptase-SEAP (hTERT-SEAP) activity in non-small cell lung cancer H1299 cell at 2.3 uM concentration; type: functional

CCCSc1cccc2c1C(=O)c1cccc(SCCC)c1C2=O
Relative viability [1]: 103% | Relative viability [2]: 97% | Relative viability [3]: 39% | Relative SEAP activity [4]: 110% | Relative SEAP activity [5]: 122% | Relative SEAP activity [6]: 132% | Relative viability [7]: 96% | Relative SEAP activity [8]: 29% | Relative SEAP activity [9]: 17% | Relative viability [10]: 44% | Relative viability [11]: 25% | Relative SEAP activity [12]: 73%

O=C1c2cccc(Sc3nccc(O)n3)c2C(=O)c2cccc(Sc3nccc(O)n3)c21
Relative viability [13]: 104% | Relative SEAP activity [14]: 112% | Relative SEAP activity [15]: 105% | Relative SEAP activity [16]: 120% | Relative SEAP activity [17]: 93% | Relative SEAP activity [18]: 116% | Relative SEAP activity [19]: 145% | Relative viability [20]: 106% | Relative viability [21]: 89% | Relative viability [22]: 78% | Relative viability [23]: 107% | Relative viability [24]: 118% | Relative viability [25]: 95% | Relative viability [26]: 51% | Relative SEAP activity [27]: 97% | Relative SEAP activity [28]: 93% | Relative SEAP activity [29]: 92% | Relative viability [30]: 99%

O=C(Oc1cccc2c1C(=O)c1cccc(OC(=O)c3cccc(Cl)c3)c1C2=O)c1cccc(Cl)c1
Relative viability [31]: 80% | Relative viability [32]: 44% | Relative SEAP activity [33]: 152% | Relative SEAP activity [34]: 91% | Relative SEAP activity [35]: 83% | Relative SEAP activity [36]: 92% | Relative viability [37]: 98% | Relative viability [38]: 88% | Relative SEAP activity [39]: 81% | Relative viability [40]: 46%

O=C1c2cccc(SCCO)c2C(=O)c2cccc(SCCO)c21
Relative viability [1]: 94% | Relative viability [2]: 49% | Relative viability [3]: 23% | Relative SEAP activity [4]: 98% | Relative SEAP activity [5]: 71% | Relative SEAP activity [6]: 104% | Relative viability [7]: 54% | Relative SEAP activity [8]: 76% | Relative SEAP activity [9]: 45% | Relative viability [10]: 29% | Relative viability [11]: 36% | Relative SEAP activity [12]: 97%

O=C(Oc1cccc2c1C(=O)c1cccc(OC(=O)c3ccccc3Cl)c1C2=O)c1ccccc1Cl
Relative viability [31]: 92% | Relative viability [32]: 40% | Relative SEAP activity [33]: 116% | Relative SEAP activity [34]: 97% | Relative SEAP activity [35]: 93% | Relative SEAP activity [36]: 101% | Relative viability [37]: 74% | Relative viability [38]: 34% | Relative SEAP activity [39]: 97% | Relative viability [40]: 30%

CCCCCC(=O)Oc1cccc2c1C(=O)c1cccc(OC(=O)CCCCC)c1C2=O
Relative viability [41]: 62% | Relative SEAP activity [42]: 149% | Relative SEAP activity [43]: 124% | Relative viability [44]: 98% | Relative viability [45]: 114% | Relative viability [46]: 106% | Relative SEAP activity [47]: 95% | Relative SEAP activity [48]: 95% | Relative viability [49]: 117% | Relative SEAP activity [50]: 91%

O=C(Oc1cccc2c1C(=O)c1cccc(OC(=O)c3ccc(Cl)cc3)c1C2=O)c1ccc(Cl)cc1
Relative viability [31]: 89% | Relative viability [32]: 48% | Relative SEAP activity [33]: 123% | Relative SEAP activity [34]: 107% | Relative SEAP activity [35]: 106% | Relative SEAP activity [36]: 106% | Relative viability [37]: 91% | Relative viability [38]: 57% | Relative SEAP activity [39]: 97% | Relative viability [40]: 31%

From ChEMBL document CHEMBL1144896 (2003)
